# Test results reported in patent US20250296934A1, “AZEPINOINDOLES AND METHODS OF PREPARATION THEREOF” (priority 2022, published 2025).
# Read-outs that look alike come from different tables or passages of the source.
# Experiments:
# hepatocyte = assay: In vitro hepatocyte clearance, dog; type: in vitro ADME; details: Dog
# Protocol: Additional experimentation was performed on compounds 1, W5, and A93. Table 6a, 6b and 6c summarize, among other things, the anticipated hepatic clearance of compounds 1, W5 and A93 respectively, in various species, as specified in Table 6a, 6b and 6c and as determined by calculating the in vitro hepatocyte clearance over time and scaling such rate with such species' hepatocyte count and the anticipated liver blood flow rate in such species.
structure (smiles),measurement,setting,value
"Cc1ccc(O)c2c3c([nH]c12)CCNCC3 [Cpd #1 (Pharm-136), 7-Methyl-1,2,3,4,5,6-hexahydroazepino[4,5-b]indol-10-ol]",Count (n. of wells),"TA1537; TA1537 + S9, 1.0E−04M",0 n. of wells
same,Significance,"TA1537; TA1537 + S9, 1.0E−04M",Negative
same,Count (n. of wells),"TA1537; TA1537 + S9, 1.0E−05M",1 n. of wells
same,Significance,"TA1537; TA1537 + S9, 1.0E−05M",Negative
same,Count (n. of wells),"TA1537; TA1537 + S9, 5.0E−05M",0 n. of wells
same,Significance,"TA1537; TA1537 + S9, 5.0E−05M",Negative
same,Count (n. of wells),"TA1537; TA1537 + S9, 5.0E−06M",2 n. of wells
same,Significance,"TA1537; TA1537 + S9, 5.0E−06M",Negative
same,Count (n. of wells),"TA1537; TA1537 − S9, 1.0E−04M",0 n. of wells
same,Significance,"TA1537; TA1537 − S9, 1.0E−04M",Negative
same,Count (n. of wells),"TA1537; TA1537 − S9, 1.0E−05M",1 n. of wells
same,Significance,"TA1537; TA1537 − S9, 1.0E−05M",Negative
same,Count (n. of wells),"TA1537; TA1537 − S9, 5.0E−05M",0 n. of wells
same,Significance,"TA1537; TA1537 − S9, 5.0E−05M",Negative
same,Count (n. of wells),"TA1537; TA1537 − S9, 5.0E−06M",0 n. of wells
same,Significance,"TA1537; TA1537 − S9, 5.0E−06M",Negative
same,Hepatic Extraction Ratio (E),hepatocyte,<0.38
same,Predicted hepatic CL,hepatocyte,<11.62 mL/min/kg
